Measured values reported in US11912660B2, “S6K1 protein kinase inhibitors as cancer therapeutics” (Xavier University of Louisiana, priority 2020, dated 2024).
Several values for one entry are separate records, joined by “and”; a condition that tells them apart may be missing. Equal values may be shown once. Read-outs that look alike come from different tables or passages of the source.

Key:
Experiment in all cases: SelectScreen kinase panel screening
Format in all cases: biochemical
CDK1/cyclin B = CDK1/cyclin B (Homo sapiens (Human), UniProt P06493)
Description: (§1) The complete list of the kinases given in Table 1 and their details can be found on the ThermoFisher website for Biochemical Kinase assays (thermofisher.com/us/en/home/industrial/pharma-biopharma/drug-discovery-development/target-and-lead-identification-and-validation/kinasebiology.html).

PDGFRA (PDGFR alpha) = PDGFRA (PDGFR alpha) (Homo sapiens (Human), UniProt P16234)
Description: as §1

PDK1 Direct = PDK1 Direct (Homo sapiens (Human), UniProt O15530)
Description: as §1

NTRK1 (TRKA) = NTRK1 (TRKA) (Homo sapiens (Human), UniProt P04629)
Description: as §1

PDGFRB (PDGFR beta) = PDGFRB (PDGFR beta) (Homo sapiens (Human), UniProt P09619)
Description: as §1

JAK2 JH1 JH2 V617F = JAK2 JH1 JH2 V617F (Homo sapiens (Human), UniProt O60674, V617F)
Description: as §1

CDK2/cyclin A = CDK2/cyclin A (Homo sapiens (Human), UniProt P24941)
Description: as §1

SGK (SGK1) = SGK (SGK1) (Homo sapiens (Human), UniProt O00141)
Description: as §1

FRAP1 (mTOR) = FRAP1 (mTOR) (Homo sapiens (Human), UniProt P42345)
Description: as §1

AURKC (Aurora C) = AURKC (Aurora C) (Homo sapiens (Human), UniProt Q9UQB9)
Description: as §1

IKBKE (IKK epsilon) = IKBKE (IKK epsilon) (Homo sapiens (Human), UniProt Q14164)
Description: as §1

EPHB4 = EPHB4 (Homo sapiens (Human), UniProt P54760)
Description: as §1

BTK = BTK (Homo sapiens (Human), UniProt Q06187)
Description: as §1

CDC42 BPB (MRCKB) = CDC42 BPB (MRCKB) (Homo sapiens (Human), UniProt Q9Y5S2)
Description: as §1

KIT = KIT (Homo sapiens (Human), UniProt P10721)
Description: as §1

ERBB2 (HER2) = ERBB2 (HER2) (Homo sapiens (Human), UniProt P04626)
Description: as §1

PTK2 (FAK) = PTK2 (FAK) (Homo sapiens (Human), UniProt Q05397)
Description: as §1

FES (FPS) = FES (FPS) (Homo sapiens (Human), UniProt P07332)
Description: as §1

RET = RET (Homo sapiens (Human), UniProt P07949)
Description: as §1

ABL2 (Arg) = ABL2 (Arg) (Homo sapiens (Human), UniProt P42684)
Description: as §1

EGFR (ErbB1) = EGFR (ErbB1) (Homo sapiens (Human), UniProt P00533)
Description: as §1

CDK7/cyclin H/MNAT1 = CDK7/cyclin H/MNAT1 (Homo sapiens (Human), UniProt P50613)
Description: as §1

CSNK2A1 (CK2 alpha 1) = CSNK2A1 (CK2 alpha 1) (Homo sapiens (Human), UniProt P68400)
Description: as §1

ABL1 = ABL1 (Homo sapiens (Human), UniProt P00519)
Description: as §1

PIM1 = PIM1 (Homo sapiens (Human), UniProt P11309)
Description: as §1

MST1R (RON) = MST1R (RON) (Homo sapiens (Human), UniProt Q04912)
Description: as §1

MAP4K4 (HGK) = MAP4K4 (HGK) (Homo sapiens (Human), UniProt O95819)
Description: as §1

ROCK1 = ROCK1 (Homo sapiens (Human), UniProt Q13464)
Description: as §1

LYN A = LYN A (Homo sapiens (Human), UniProt P07948)
Description: as §1

PTK6 (Brk) = PTK6 (Brk) (Homo sapiens (Human), UniProt Q13882)
Description: as §1

ERBB4 (HER4) = ERBB4 (HER4) (Homo sapiens (Human), UniProt Q15303)
Description: as §1

CDK7/cyclin H/MNAT1, sequence (P50613 whole entry): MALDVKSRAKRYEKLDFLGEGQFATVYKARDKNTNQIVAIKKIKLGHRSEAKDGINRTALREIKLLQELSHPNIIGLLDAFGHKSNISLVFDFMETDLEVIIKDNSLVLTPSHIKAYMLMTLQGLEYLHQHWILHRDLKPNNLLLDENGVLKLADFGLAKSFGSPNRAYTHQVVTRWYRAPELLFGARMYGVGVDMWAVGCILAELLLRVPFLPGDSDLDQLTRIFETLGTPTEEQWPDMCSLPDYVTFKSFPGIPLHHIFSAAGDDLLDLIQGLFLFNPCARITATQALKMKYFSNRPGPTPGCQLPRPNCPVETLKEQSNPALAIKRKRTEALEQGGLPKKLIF
CDK7/cyclin H/MNAT1, sequence (P51946 whole entry partner): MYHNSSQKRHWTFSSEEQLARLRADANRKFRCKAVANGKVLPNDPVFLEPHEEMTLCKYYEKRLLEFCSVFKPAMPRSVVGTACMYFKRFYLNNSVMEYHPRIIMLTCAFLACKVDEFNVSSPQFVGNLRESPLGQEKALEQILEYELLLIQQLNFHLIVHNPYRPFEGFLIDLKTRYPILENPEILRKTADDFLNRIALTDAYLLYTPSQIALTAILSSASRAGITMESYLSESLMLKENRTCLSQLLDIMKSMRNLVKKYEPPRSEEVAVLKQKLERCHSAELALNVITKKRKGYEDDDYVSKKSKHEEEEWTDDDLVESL
CDK7/cyclin H/MNAT1, sequence (P51948 whole entry partner): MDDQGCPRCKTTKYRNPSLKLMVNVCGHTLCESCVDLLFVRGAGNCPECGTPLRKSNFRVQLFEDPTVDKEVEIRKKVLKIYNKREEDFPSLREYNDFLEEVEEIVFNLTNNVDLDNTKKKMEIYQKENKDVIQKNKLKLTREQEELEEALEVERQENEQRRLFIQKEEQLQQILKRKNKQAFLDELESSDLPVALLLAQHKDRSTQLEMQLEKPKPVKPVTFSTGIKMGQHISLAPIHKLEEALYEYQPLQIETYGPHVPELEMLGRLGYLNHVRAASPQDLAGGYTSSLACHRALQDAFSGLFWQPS
SGK (SGK1), sequence (O00141 whole entry): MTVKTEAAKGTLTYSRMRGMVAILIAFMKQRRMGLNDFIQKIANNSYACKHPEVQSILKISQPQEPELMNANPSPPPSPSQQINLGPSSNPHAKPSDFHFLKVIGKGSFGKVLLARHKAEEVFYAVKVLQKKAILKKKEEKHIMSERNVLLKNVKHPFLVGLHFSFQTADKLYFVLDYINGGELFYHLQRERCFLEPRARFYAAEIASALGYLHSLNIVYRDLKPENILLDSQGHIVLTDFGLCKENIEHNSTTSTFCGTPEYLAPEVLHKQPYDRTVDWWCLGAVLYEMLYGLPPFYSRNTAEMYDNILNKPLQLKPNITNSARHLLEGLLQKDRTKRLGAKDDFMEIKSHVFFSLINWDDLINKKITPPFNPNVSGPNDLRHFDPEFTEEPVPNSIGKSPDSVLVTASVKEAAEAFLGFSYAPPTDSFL
ABL1, sequence (P00519 whole entry): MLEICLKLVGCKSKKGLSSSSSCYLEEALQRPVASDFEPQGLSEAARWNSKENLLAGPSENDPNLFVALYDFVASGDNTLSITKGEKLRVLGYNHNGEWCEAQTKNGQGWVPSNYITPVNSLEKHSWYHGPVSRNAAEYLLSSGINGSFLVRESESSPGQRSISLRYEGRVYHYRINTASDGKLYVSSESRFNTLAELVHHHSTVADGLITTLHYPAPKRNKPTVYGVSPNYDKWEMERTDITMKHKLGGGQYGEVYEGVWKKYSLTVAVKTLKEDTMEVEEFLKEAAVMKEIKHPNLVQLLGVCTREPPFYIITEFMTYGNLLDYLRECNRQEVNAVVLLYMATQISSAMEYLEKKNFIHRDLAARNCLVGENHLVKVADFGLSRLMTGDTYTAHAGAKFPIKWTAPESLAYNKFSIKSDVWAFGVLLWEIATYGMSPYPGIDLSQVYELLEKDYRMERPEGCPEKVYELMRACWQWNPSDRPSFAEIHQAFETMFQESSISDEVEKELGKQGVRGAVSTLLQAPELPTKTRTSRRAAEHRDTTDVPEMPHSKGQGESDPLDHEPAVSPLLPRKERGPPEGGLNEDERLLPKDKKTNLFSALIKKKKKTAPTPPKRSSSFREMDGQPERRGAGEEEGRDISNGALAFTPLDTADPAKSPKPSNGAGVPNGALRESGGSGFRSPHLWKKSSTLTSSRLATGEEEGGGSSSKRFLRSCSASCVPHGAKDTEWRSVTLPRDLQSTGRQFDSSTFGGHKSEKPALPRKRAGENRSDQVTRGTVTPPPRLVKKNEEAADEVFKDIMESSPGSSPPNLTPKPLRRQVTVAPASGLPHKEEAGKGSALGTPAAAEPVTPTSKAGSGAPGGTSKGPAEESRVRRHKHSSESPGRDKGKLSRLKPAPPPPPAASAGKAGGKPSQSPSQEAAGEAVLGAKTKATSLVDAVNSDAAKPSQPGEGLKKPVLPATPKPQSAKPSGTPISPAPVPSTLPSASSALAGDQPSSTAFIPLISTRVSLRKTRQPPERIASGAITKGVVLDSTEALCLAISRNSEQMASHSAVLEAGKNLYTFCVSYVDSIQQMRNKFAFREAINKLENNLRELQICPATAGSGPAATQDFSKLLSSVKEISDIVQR
EPHB4, sequence (P54760 16-987): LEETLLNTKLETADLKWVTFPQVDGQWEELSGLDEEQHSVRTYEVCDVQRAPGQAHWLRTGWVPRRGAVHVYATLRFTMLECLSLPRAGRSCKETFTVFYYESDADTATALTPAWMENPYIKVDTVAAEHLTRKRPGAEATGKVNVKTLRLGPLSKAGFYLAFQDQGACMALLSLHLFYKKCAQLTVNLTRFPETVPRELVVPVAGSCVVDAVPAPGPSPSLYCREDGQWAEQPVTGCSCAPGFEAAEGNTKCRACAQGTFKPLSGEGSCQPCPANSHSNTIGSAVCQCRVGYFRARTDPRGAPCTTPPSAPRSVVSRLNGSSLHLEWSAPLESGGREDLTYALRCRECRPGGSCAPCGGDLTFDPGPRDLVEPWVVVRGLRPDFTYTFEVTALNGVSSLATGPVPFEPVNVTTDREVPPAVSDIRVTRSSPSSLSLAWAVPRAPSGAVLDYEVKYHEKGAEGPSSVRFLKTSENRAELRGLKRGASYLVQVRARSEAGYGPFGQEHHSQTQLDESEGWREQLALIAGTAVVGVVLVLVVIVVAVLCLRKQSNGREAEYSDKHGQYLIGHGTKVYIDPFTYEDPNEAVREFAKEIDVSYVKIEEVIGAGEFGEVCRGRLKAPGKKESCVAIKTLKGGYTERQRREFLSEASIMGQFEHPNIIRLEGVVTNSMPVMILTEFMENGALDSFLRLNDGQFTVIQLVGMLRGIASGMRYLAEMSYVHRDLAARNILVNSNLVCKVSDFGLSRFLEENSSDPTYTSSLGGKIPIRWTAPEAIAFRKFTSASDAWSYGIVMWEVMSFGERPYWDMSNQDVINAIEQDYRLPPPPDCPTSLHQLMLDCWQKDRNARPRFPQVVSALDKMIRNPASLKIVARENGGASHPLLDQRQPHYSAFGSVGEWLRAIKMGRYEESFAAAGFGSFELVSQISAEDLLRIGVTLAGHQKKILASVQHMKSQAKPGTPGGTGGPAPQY
KIT, sequence (P10721 26-976): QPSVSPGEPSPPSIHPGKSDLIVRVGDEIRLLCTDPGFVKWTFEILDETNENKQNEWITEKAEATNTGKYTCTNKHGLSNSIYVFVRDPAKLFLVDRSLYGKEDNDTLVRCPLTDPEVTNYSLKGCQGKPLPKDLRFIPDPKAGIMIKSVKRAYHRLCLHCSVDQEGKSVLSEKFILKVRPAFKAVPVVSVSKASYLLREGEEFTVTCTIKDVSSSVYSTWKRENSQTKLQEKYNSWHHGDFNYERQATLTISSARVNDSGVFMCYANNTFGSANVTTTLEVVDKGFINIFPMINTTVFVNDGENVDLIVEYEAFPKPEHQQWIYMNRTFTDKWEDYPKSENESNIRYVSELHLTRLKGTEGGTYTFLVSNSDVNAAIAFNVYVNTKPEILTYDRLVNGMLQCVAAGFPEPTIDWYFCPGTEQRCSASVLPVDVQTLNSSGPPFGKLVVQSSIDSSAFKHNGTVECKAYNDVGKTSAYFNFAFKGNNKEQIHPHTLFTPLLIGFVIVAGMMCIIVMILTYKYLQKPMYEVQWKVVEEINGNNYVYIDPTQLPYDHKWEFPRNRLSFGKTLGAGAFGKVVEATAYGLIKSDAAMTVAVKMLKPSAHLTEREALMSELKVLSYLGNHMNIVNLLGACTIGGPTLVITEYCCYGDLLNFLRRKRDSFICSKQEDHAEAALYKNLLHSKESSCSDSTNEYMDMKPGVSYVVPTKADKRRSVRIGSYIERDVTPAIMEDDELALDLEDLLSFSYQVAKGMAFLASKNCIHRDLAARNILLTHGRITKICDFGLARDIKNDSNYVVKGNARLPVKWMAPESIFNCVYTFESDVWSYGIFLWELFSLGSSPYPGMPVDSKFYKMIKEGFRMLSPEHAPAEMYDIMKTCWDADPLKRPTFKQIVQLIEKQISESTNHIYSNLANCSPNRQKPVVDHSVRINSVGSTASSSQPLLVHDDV
PIM1, sequence (P11309 whole entry): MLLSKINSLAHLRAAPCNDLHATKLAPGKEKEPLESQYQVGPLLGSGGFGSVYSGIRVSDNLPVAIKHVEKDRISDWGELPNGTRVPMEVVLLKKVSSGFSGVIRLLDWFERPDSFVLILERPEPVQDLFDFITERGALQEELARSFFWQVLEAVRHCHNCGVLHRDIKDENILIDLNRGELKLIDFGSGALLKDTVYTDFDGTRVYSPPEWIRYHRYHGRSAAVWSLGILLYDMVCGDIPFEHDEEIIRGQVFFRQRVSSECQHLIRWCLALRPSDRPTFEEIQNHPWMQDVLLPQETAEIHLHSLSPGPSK

Q: Which inhibition at 10 µM (CDK1/cyclin B; read-out: % Inhibition) does the source give for `Nc1cc(N)c2c(c1)C(=O)NC2=O` [RJ1, 4,6-diaminoisoindoline-1,3-dione] here?
A: 8%

Q: And the inhibition at 10 µM (CDK1/cyclin B; read-out: % Inhibition class)?
A: < 40%

Q: What about the inhibition at 10 µM (PDGFRA (PDGFR alpha); read-out: % Inhibition) of the same molecule?
A: 13%

Q: And the inhibition at 10 µM (PDGFRA (PDGFR alpha); read-out: % Inhibition class)?
A: < 40%

Q: What about the inhibition at 10 µM (PDK1 Direct; read-out: % Inhibition) of the same molecule?
A: 33%

Q: And the inhibition at 10 µM (PDK1 Direct; read-out: % Inhibition class)?
A: < 40%

Q: And the inhibition at 10 µM (NTRK1 (TRKA); read-out: % Inhibition)?
A: 5%

Q: And the inhibition at 10 µM (NTRK1 (TRKA); read-out: % Inhibition class)?
A: < 40%

Q: And the inhibition at 10 µM (PDGFRB (PDGFR beta); read-out: % Inhibition)?
A: 5%

Q: And the inhibition at 10 µM (PDGFRB (PDGFR beta); read-out: % Inhibition class)?
A: < 40%

Q: And the inhibition at 10 µM (JAK2 JH1 JH2 V617F; read-out: % Inhibition)?
A: 6%

Q: And the inhibition at 10 µM (JAK2 JH1 JH2 V617F; read-out: % Inhibition class)?
A: < 40%

Q: And the inhibition at 10 µM (CDK2/cyclin A; read-out: % Inhibition)?
A: 9%

Q: And the inhibition at 10 µM (CDK2/cyclin A; read-out: % Inhibition class)?
A: < 40%

Q: What about the inhibition at 10 µM (SGK (SGK1); read-out: % Inhibition) of the same molecule?
A: 50%

Q: What about the inhibition at 10 µM (SGK (SGK1); read-out: % Inhibition class) of the same molecule?
A: 40 to 80%

Q: And the inhibition at 10 µM (FRAP1 (mTOR); read-out: % Inhibition)?
A: 6%

Q: What about the inhibition at 10 µM (FRAP1 (mTOR); read-out: % Inhibition class) of the same molecule?
A: < 40%

Q: And the inhibition at 10 µM (AURKC (Aurora C); read-out: % Inhibition)?
A: 40%

Q: And the inhibition at 10 µM (AURKC (Aurora C); read-out: % Inhibition class)?
A: < 40%

Q: What about the inhibition at 10 µM (IKBKE (IKK epsilon); read-out: % Inhibition) of the same molecule?
A: 16%

Q: And the inhibition at 10 µM (IKBKE (IKK epsilon); read-out: % Inhibition class)?
A: < 40%

Q: And the inhibition at 10 µM (EPHB4; read-out: % Inhibition)?
A: 9%

Q: What about the inhibition at 10 µM (EPHB4; read-out: % Inhibition class) of the same molecule?
A: < 40%

Q: And the inhibition at 10 µM (BTK; read-out: % Inhibition)?
A: 43%

Q: And the inhibition at 10 µM (BTK; read-out: % Inhibition class)?
A: 40 to 80%

Q: What about the inhibition at 10 µM (CDC42 BPB (MRCKB); read-out: % Inhibition) of the same molecule?
A: 0%

Q: What about the inhibition at 10 µM (CDC42 BPB (MRCKB); read-out: % Inhibition class) of the same molecule?
A: < 40%

Q: And the inhibition at 10 µM (KIT; read-out: % Inhibition)?
A: 7%

Q: What about the inhibition at 10 µM (KIT; read-out: % Inhibition class) of the same molecule?
A: < 40%

Q: And the inhibition at 10 µM (ERBB2 (HER2); read-out: % Inhibition)?
A: 6%

Q: What about the inhibition at 10 µM (ERBB2 (HER2); read-out: % Inhibition class) of the same molecule?
A: < 40%

Q: What about the inhibition at 10 µM (PTK2 (FAK); read-out: % Inhibition) of the same molecule?
A: 26%

Q: What about the inhibition at 10 µM (PTK2 (FAK); read-out: % Inhibition class) of the same molecule?
A: < 40%

Q: What about the inhibition at 10 µM (FES (FPS); read-out: % Inhibition) of the same molecule?
A: 36%

Q: What about the inhibition at 10 µM (FES (FPS); read-out: % Inhibition class) of the same molecule?
A: < 40%

Q: What about the inhibition at 10 µM (RET; read-out: % Inhibition) of the same molecule?
A: 79%

Q: What about the inhibition at 10 µM (RET; read-out: % Inhibition class) of the same molecule?
A: 40 to 80%

Q: And the inhibition at 10 µM (ABL2 (Arg); read-out: % Inhibition)?
A: 54%

Q: What about the inhibition at 10 µM (ABL2 (Arg); read-out: % Inhibition class) of the same molecule?
A: 40 to 80%

Q: What about the inhibition at 10 µM (EGFR (ErbB1); read-out: % Inhibition) of the same molecule?
A: 12%

Q: And the inhibition at 10 µM (EGFR (ErbB1); read-out: % Inhibition class)?
A: < 40%

Q: What about the “% Inhibition” value (CDK7/cyclin H/MNAT1; 10 μM) of the same molecule?
A: 1% and −1%

Q: And the inhibition at 10 µM (CDK7/cyclin H/MNAT1; read-out: % Inhibition class)?
A: < 40%

Q: What about the inhibition at 10 µM (CSNK2A1 (CK2 alpha 1); read-out: % Inhibition) of the same molecule?
A: 5%

Q: And the inhibition at 10 µM (CSNK2A1 (CK2 alpha 1); read-out: % Inhibition class)?
A: < 40%

Q: And the inhibition at 10 µM (ABL1; read-out: % Inhibition)?
A: 59%

Q: What about the inhibition at 10 µM (ABL1; read-out: % Inhibition class) of the same molecule?
A: 40 to 80%

Q: And the inhibition at 10 µM (PIM1; read-out: % Inhibition)?
A: 35%

Q: And the inhibition at 10 µM (PIM1; read-out: % Inhibition class)?
A: < 40%

Q: What about the inhibition at 10 µM (MST1R (RON); read-out: % Inhibition) of the same molecule?
A: 27%

Q: What about the inhibition at 10 µM (MST1R (RON); read-out: % Inhibition class) of the same molecule?
A: < 40%

Q: And the inhibition at 10 µM (MAP4K4 (HGK); read-out: % Inhibition)?
A: 66%

Q: What about the inhibition at 10 µM (MAP4K4 (HGK); read-out: % Inhibition class) of the same molecule?
A: 40 to 80%

Q: And the inhibition at 10 µM (ROCK1; read-out: % Inhibition)?
A: 21%

Q: And the inhibition at 10 µM (ROCK1; read-out: % Inhibition class)?
A: < 40%

Q: What about the inhibition at 10 µM (LYN A; read-out: % Inhibition) of the same molecule?
A: 12%

Q: And the inhibition at 10 µM (LYN A; read-out: % Inhibition class)?
A: < 40%

Q: What about the inhibition at 10 µM (PTK6 (Brk); read-out: % Inhibition) of the same molecule?
A: 4%

Q: What about the inhibition at 10 µM (PTK6 (Brk); read-out: % Inhibition class) of the same molecule?
A: < 40%

Q: What about the inhibition at 10 µM (ERBB4 (HER4); read-out: % Inhibition) of the same molecule?
A: 25%

Q: What about the inhibition at 10 µM (ERBB4 (HER4); read-out: % Inhibition class) of the same molecule?
A: < 40%
